# Assay results taken from patent US8859727B2, “Bioactive FUS1 peptides and nanoparticle-polypeptide complexes” (Board of Regents, The University of Texas System, priority 2005, dated 2014).
# “Also recorded” adds a separate entry of the source. Structures can show the parent of a compound that is named as a salt. Where two headings read alike, the source gives them in different places. Where a SMILES comes first, the peptide text is derived from it. Where no end group is shown, it is not given here. The star is where a group is joined. Stearoyl = CCCCCCCCCCCCCCCCCC(=O)*
# Tests used:
# [1] = Toxicity Study of FP-nanoparticle in C3H mice (hematological parameters, hepatic and renal function); type: in vivo; settings: tail vein three times every other day
# Method: C3H mice were injected with a nanoparticle containing a peptide (either the FUS-1 peptide or a nonspecific peptide), and various toxicological parameters were subsequently analyzed at 1, 2 and 3 weeks after injection. Control mice (“Group IX”) were injected with PBS. The toxicological parameters evaluated included hematological parameters (i.e., red blood cell counts “RBC” and white blood cell counts “WBC”), analysis of hepatic function (i.e., AST, ALT, and total bilirubin analysis) and analysis of renal function (i.e., evaluation of creatinine levels). Either DOTAP:cholesterol nanoparticles or DOPC (neutral liposome) nanoparticles were used. The amount of peptide-containing nanoparticle administered to the C3H mice varied from 2 mg/kg to 5 mg/kg. These studies are summarized below in Table V.
# [2] = tested on: H1299 cells; experiment: Soft agar colony assay; type: cell-based, human
# [3] = tested on: normal bronchial epithelial CCD16 cells; experiment: Cell growth / cytotoxicity in normal cells, XTT assay; type: cell-based, human; settings: at the IC80 doses to all other NSCLC cells
# [4] = target: T1, c-Abl tyrosine kinase (Abelson murine leukemia virus, UniProt P00521); type: biochemical; settings: for inhibition of Abl tyrosine kinase: commercial / bacterially purified Abl kinase, GST-Crk substrate
# T1 construct: truncated commercial (New England Bio-Labs) cAbl tyrosine kinase (45 kD) containing only the SH2 and SH1 domains; purchased New England Bio-Labs; host or cells: bacteria
# T1 sequence (P00521 1-398): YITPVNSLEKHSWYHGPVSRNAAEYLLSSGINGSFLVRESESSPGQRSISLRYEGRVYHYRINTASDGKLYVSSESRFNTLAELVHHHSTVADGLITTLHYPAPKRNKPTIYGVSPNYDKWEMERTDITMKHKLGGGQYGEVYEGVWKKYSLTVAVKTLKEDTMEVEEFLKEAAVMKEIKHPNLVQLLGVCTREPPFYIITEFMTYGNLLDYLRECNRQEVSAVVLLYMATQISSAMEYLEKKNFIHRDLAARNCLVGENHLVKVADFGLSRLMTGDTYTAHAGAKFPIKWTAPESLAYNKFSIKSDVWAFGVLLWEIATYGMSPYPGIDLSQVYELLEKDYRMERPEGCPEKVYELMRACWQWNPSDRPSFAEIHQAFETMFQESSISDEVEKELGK
# Method: A zero peptide control, a DMSO control, a DMSO plus stearic acid control, and 20, 25, 30, 35, 40, 45, 50 and 55:M of peptide were evaluated.
# After 30 minutes of incubation at 30 degrees, samples were boiled with 2×SDS sample buffer and run on an 8% SDS PAGE gel. The gel was dried and exposed to a phosphoimager.
# GST-Crk phosphorylation was quantified by using a phosphoimager.
# [5] = tested on: Rat-1 cells transformed with an activated c-Abl tyrosine kinase; experiment: Foci formation in Rat-1 cells transformed by c-Abl; type: cell-based
# Source text: Rat-1 SH2 cells express GFP as a marker. A fluorescent photo was taken of green fluorescing Rat-1 SH2 cells treated with peptide. A phase contrast photo of the field was produced. […] (Rat-1 SH2+M74) and (Rat-1 SH2+ stearic acid) were imaged.
# [6] = 2 mg/kg, 1st week after last treatment
# [7] = 2 mg/kg, 2nd week after last treatment
# [8] = 2 mg/kg, 3rd week after last treatment
# [9] = 5 mg/kg, 1st week after last treatment
# [10] = 5 mg/kg, 2nd week after last treatment
# [11] = 5 mg/kg, 3rd week after last treatment
# [12] = Rat-1 cells transformed with activated c-Abl
molecule,measurement,setting,value
CCCCCCCCCCCCCCCCCC(=O)N[C@@H](CC(=O)O)C(=O)N[C@@H](CC(C)C)C(=O)N[C@H](C(=O)N[C@@H](CCC(=O)O)C(=O)N[C@@H](CCC(=O)O)C(=O)N[C@@H](C)C(=O)N[C@@H](C)C(=O)N[C@@H](CO)C(=O)N[C@@H](CCCNC(=N)N)C(=O)N1CCC[C@H]1C(=O)N[C@H](C(=O)N[C@@H](CC(=O)O)C(=O)N[C@@H](C)C(=O)N[C@H](C(=O)N1CCC[C@H]1C(=O)N[C@@H](CCC(=O)O)C(=O)N[C@@H](CCC(N)=O)C(=O)N[C@H](C(=O)N[C@@H](CCCCN)C(=O)N[C@@H](C)C(=O)N[C@@H](C)C(=O)NCC(=O)N[C@@H](C)C(=O)N[C@@H](Cc1ccc(O)cc1)C(=O)O)C(C)C)C(C)C)C(C)C)[C@@H](C)CC [NSP] (Stearoyl-DLIEEAASRPVDAVPEQVKAAGAY-OH),ALT,[1]; [6],76 ± 7.87 U/L
same,AST,[1]; [6],183 ± 6 U/L
same,Creatinine,[1]; [6],0.6 ± 0 mg/dL
same,Total Bilirubin,[1]; [6],2.7 ± 0 mg/dL
same,ALT,[1]; [7],61.67 ± 5.44 U/L
same,AST,[1]; [7],146 ± 45.31 U/L
same,Creatinine,[1]; [7],0.5 ± 0.10 mg/dL
same,RBC,[1]; [7],6.23 ± 0.33 ×10^9
same,Total Bilirubin,[1]; [7],1.13 ± 1.09 mg/dL
same,WBC,[1]; [7],1.93 ± 0.58 ×10^9
same,ALT,[1]; [8],58.67 ± 12.55 U/L
same,AST,[1]; [8],94.67 ± 28.59 U/L
same,Creatinine,[1]; [8],0.38 ± 0.09 mg/dL
same,RBC,[1]; [8],5.7 ± 1.14 ×10^9
same,Total Bilirubin,[1]; [8],0.6 ± 0.42 mg/dL
same,WBC,[1]; [8],1.93 ± 0.45 ×10^9
same,ALT,[1]; [9],91.5 ± 7.5 U/L
same,AST,[1]; [9],148.5 ± 13.5 U/L
same,Creatinine,[1]; [9],0.317 ± 0.02 mg/dL
same,Total Bilirubin,[1]; [9],1.8 ± 1.2 mg/dL
same,ALT,[1]; [10],54 ± 9.93 U/L
same,AST,[1]; [10],96.33 ± 20.24 U/L
same,Creatinine,[1]; [10],0.35 ± 0.02 mg/dL
same,RBC,[1]; [10],7.47 ± 2.28 ×10^9
same,Total Bilirubin,[1]; [10],0.7 ± 0.28 mg/dL
same,WBC,[1]; [10],1.6 ± 0.24 ×10^9
same,ALT,[1]; [11],50 ± 6.16 U/L
same,AST,[1]; [11],83.67 ± 23.63 U/L
same,Creatinine,[1]; [11],0.32 ± 0.04 mg/dL
same,RBC,[1]; [11],6.67 ± 0.69 ×10^9
same,Total Bilirubin,[1]; [11],0.43 ± 0.12 mg/dL
same,WBC,[1]; [11],1.6 ± 0.14 ×10^9
"Cc1ccc(NC(=O)c2ccc(CN3CCN(C)CC3)cc2)cc1Nc1nccc(-c2cccnc2)n1 [imatinib, imatinib mesylate]",colony-forming ability,"[2]; 1-10 uM, dose-dependent, number and size of colonies",strongly inhibited
same,size of colonies,"[2]; 10:M, compared to untreated cells",reduced in size
same,number of colonies,"[2]; 10:M, compared to untreated control",almost complete reduction in the number of colonies
CCCCCCCCCCCCCCCCCC(=O)N[C@@H](CCCCN)C(=O)N[C@@H](CC(C)C)C(=O)N[C@@H](CCCNC(=N)N)C(=O)N[C@@H](CCCNC(=N)N)C(=O)N[C@H](C(=O)N[C@@H](Cc1c[nH]cn1)C(=O)N[C@@H](CCCCN)C(=O)N[C@@H](CC(N)=O)C(=O)N[C@@H](CC(C)C)C(=O)N[C@H](C(=O)N1CCC[C@H]1C(=O)N[C@@H](CCC(N)=O)C(=O)NCC(=O)N[C@H](C(=O)N[C@H](C(=O)N[C@@H](CCCCN)C(=O)N[C@@H](CC(C)C)C(=O)N[C@@H](CC(=O)O)C(=O)N[C@@H](Cc1c[nH]cn1)C(=O)N1CCC[C@H]1C(=O)N[C@@H](CCCNC(=N)N)C(=O)O)C(C)C)[C@@H](C)CC)[C@@H](C)CC)C(C)C [st-wt-FP] (Stearoyl-KLRRVHKNLIPQGIVKLDHPR-OH),cytotoxicity in normal cells,[3],No significant cytotoxicity
CCCCCCCCCCCCCCCCCC(=O)O [stearic acid],inhibition of Abl tyrosine kinase,[4],no inhibitory effects; also recorded: not inhibitory
same,inhibition of Abl tyrosine kinase,[4]; listed as Stearate,not inhibitory
same,foci formation,"[5]; 30:M, Rat-1 SH2 cells",no effect
same,foci formation,[5]; [12],no effects
Non-stearate FUS1 peptide: Fus1 peptide sequence without the stearic acid moiety (KLRRVHKNLIPQGIVKLDHR),inhibition of Abl tyrosine kinase activity,"[4]; 0-60 uM, 45 kD Abl tyrosine kinase, GST-Crk phosphorylation",did not inhibit
same,inhibition of Abl tyrosine kinase,[4],did not inhibit
same,inhibition of Abl tyrosine kinase,[4]; listed as Fus1 peptide lacking the stearate N-terminal moiety,inactive
Stearic acid-KLRRVHKNLIPQGIVKLDHR (Stearoyl-KLRRVHKNLIPQGIVKLDHR) [stearate-Fus1 peptide],inhibition of Abl tyrosine kinase,[4],strongly inhibitory
same,foci formation,[5]; 40 μM,blocked foci formation
same,foci formation,[5]; [12],blocked foci formation
